Patent US4536397A, “Antibiotics, neoviridogriseins, and their method of production” (Sanraku-Ocean Co., Ltd., priority 1983, dated 1985)
In brackets after ≈: the same amount, converted by molar mass. Starred links: 1 amine or outer side, 2 acyl side, 3 side chain; linkers in the order of their positions; H or OH if unused. Positions of bridges follow the written chain, without caps; N, C: chain ends. Non-standard residues stand in square brackets, D forms with d. Residues, ends and D or L forms follow the SMILES beside them. ξ: configuration not given here. *: point of attachment. NMeLeu(3ξ-Me) = CN[C@H](C(=O)O)C(C)C(C)C; X1 = CC(C)C(C)C(C(=O)[*:2])N(C)[*:1]; Picolinoyl(3-OH) = O=C(c1ncccc1O)*; NMePhg = CN[CH](C(=O)O)c1ccccc1; Thr(3ξ) = CC(O)[C@H](N)C(=O)O; Hyp = O=C(O)[CH]1C[CH](O)CN1; Abu = CC[CH](N)C(=O)O; Sar = CNCC(=O)O

Columns and labels:
Staphylococcus aureus = assay: MIC, tube dilution method; type: cell-based; settings: BHI broth
Staphylococcus sp. = assay: MIC, tube dilution method; type: cell-based; settings: BHI broth
[1] = test system: Diplococcus pneumoniac type 1; assay: MIC, tube dilution method; type: cell-based, Diplococcus pneumoniae; settings: BHI broth containing 10% horse blood
Streptococcus pyogenes = assay: MIC, tube dilution method; type: cell-based; settings: BHI broth containing 10% horse blood
Sarcina lutea = assay: MIC, tube dilution method (incl. synergism with griseoviridin); type: cell-based; settings: Table 1; BHI broth
[2] = test system: Bacillus subtilis ATCC 6633; assay: MIC, tube dilution method; type: cell-based; settings: BHI broth
Salmonella gallinanum = assay: MIC, tube dilution method; type: cell-based; settings: BHI broth
Escherichia coli = assay: MIC, tube dilution method; type: cell-based; settings: BHI broth
Pseudeomonas aeruginosa = assay: MIC, tube dilution method; type: cell-based; settings: BHI broth
Proteus vulgaris = assay: MIC, tube dilution method; type: cell-based; settings: BHI broth
Candida albicans = assay: MIC, tube dilution method; type: cell-based; settings: malt extract-yeast extract medium
Solubility in solvents = type: physicochemical; settings: for solubility in organic solvents: methanol, ethanol, propanols, n-butanol, dioxane, acetates, ketones, benzene, toluene, chlorinated solvents, DMF, DMSO

Row | SMILES | MIC (Staphylococcus aureus; strain 209P) [µg/mL] | MIC (Staphylococcus aureus; strain (BX-1633)(PC)r) [µg/mL] | MIC (Staphylococcus aureus; strain (EM)r) [µg/mL] | MIC (Staphylococcus aureus; strain (EM, CM, SM, PC, TC)r) [µg/mL] | MIC (Staphylococcus aureus; strain (EM, OM)r) [µg/mL] | MIC (Staphylococcus aureus; strain (PC, EM, NM)r) [µg/mL] | MIC (Staphylococcus aureus; strain (PC, TC, EM, LM)r 1) [µg/mL] | MIC (Staphylococcus aureus; strain (PC, TC, EM, LM)r 2) [µg/mL] | MIC (Staphylococcus aureus; strain (SM, STH)r) [µg/mL] | MIC (Staphylococcus aureus; strain (STH)r) [µg/mL] | MIC (Staphylococcus aureus; strain (TC, CP, PC)r) [µg/mL] | MIC (Staphylococcus aureus; strain (TC, EM, LM, CP)r) [µg/mL] | MIC (Staphylococcus aureus; strain Russell(PC)r) [µg/mL] | MIC (Staphylococcus aureus; strain Smith) [µg/mL] | MIC (Staphylococcus sp.; Staphylococcus sp. (PC)r) [µg/mL] | MIC (Staphylococcus sp.; Staphylococcus sp.) [µg/mL] | MIC [1] [µg/mL] | MIC (Streptococcus pyogenes) [µg/mL] | MIC (Sarcina lutea) [µg/mL] | MIC [2] [µg/mL] | other results
1 | CC[C@@H]1NC(=O)[C@H](C(C)C(C)C)N(C)C(=O)CN(C)C(=O)[C@H]2CCCN2C(=O)[C@@H](CC(C)C)NC(=O)[C@@H](NC(=O)c2ncccc2O)C(C)OC(=O)[C@H](c2ccccc2)N(C)C1=O (stereo partly drawn) [NV I, neoviridogrisein I] ({Picolinoyl(3-OH)}-[Thr(3ξ)][dL][dP][Sar][NMeLeu(3ξ-Me)][Abu][NMePhg]; ester 1-C) | 0.2 (≈ 0.228 µM) | 0.4 (≈ 0.456 µM) | 0.4 (≈ 0.456 µM) | 0.4 (≈ 0.456 µM) | 0.8 (≈ 0.912 µM) | 0.8 (≈ 0.912 µM) | 6.25 (≈ 7.13 µM) | 6.25 (≈ 7.13 µM) | 0.4 (≈ 0.456 µM) | 0.8 (≈ 0.912 µM) | 0.2 (≈ 0.228 µM) | 6.25 (≈ 7.13 µM) | 0.2 (≈ 0.228 µM) | 0.2 (≈ 0.228 µM) | 0.8 (≈ 0.912 µM) | 0.8 (≈ 0.912 µM) | 0.2 (≈ 0.228 µM) | 0.4 (≈ 0.456 µM) | 0.2 | 0.4 (≈ 0.456 µM) | MIC (Salmonella gallinanum): > 25 µg/mL; MIC (Escherichia coli): > 25 µg/mL; MIC (Pseudeomonas aeruginosa): > 25 µg/mL; MIC (Proteus vulgaris): > 25 µg/mL; MIC (Candida albicans): > 25 µg/mL; solubility in organic solvents (Solubility in solvents): soluble; solubility in petroleum ether and hexane (Solubility in solvents): practically insoluble; solubility in water and ethyl ether (Solubility in solvents): hardly soluble
2 | CCC1NC(=O)C(C(C)C(C)C)N(C)C(=O)CN(C)C(=O)C2CC(O)CN2C(=O)C(CC(C)C)NC(=O)C(NC(=O)c2ncccc2O)C(C)OC(=O)C(c2ccccc2)N(C)C1=O (centres unmarked) [NV III, neoviridogrisein III] ({Picolinoyl(3-OH)}-TL[Hyp][Sar][X1][Abu][NMePhg]; ester 1-C; configuration not given here) | 0.2 (≈ 0.224 µM) | 0.4 (≈ 0.448 µM) | 0.4 (≈ 0.448 µM) | 0.4 (≈ 0.448 µM) | 0.8 (≈ 0.896 µM) | 0.4 (≈ 0.448 µM) | 6.25 (≈ 7 µM) | 6.25 (≈ 7 µM) | 0.2 (≈ 0.224 µM) | 1.6 (≈ 1.79 µM) | 0.4 (≈ 0.448 µM) | 6.25 (≈ 7 µM) | 0.4 (≈ 0.448 µM) | 0.2 (≈ 0.224 µM) | 0.8 (≈ 0.896 µM) | 0.8 (≈ 0.896 µM) | 0.2 (≈ 0.224 µM) | 0.4 (≈ 0.448 µM) | 0.4 | 0.8 (≈ 0.896 µM) | MIC (Salmonella gallinanum): > 25 µg/mL; MIC (Escherichia coli): > 25 µg/mL; MIC (Pseudeomonas aeruginosa): > 25 µg/mL; MIC (Proteus vulgaris): > 25 µg/mL; MIC (Candida albicans): > 25 µg/mL; solubility in organic solvents (Solubility in solvents): soluble; solubility in petroleum ether and hexane (Solubility in solvents): practically insoluble; solubility in water and ethyl ether (Solubility in solvents): hardly soluble
